“Also recorded” adds a separate entry of the source. Where two headings read alike, the source gives them in different places. Positions of bridges follow the written chain, without caps; N, C: chain ends. Residues, ends and D or L forms follow the SMILES beside them. Chains are numbered I, II in the order given. *: point of attachment. Daunorubicin(13-NOCH2CO) = COc1cccc2c1C(=O)c1c(O)c3c(c(O)c1C2=O)C[C@@](O)(C(C)=NOCC(=O)*)C[C@@H]3O[C@H]1C[C@H](N)[C@H](O)[C@H](C)O1
Experiments:
[1] = system: CD13+ HT-1080 human fibrosarcoma cells; assay: In vitro cytostatic/cytotoxic effect, PrestoBlue viability; format: cell-based
Description: (§1) Similarly to our previous study the antitumor effects of conjugates were examined in vitro on CD13+ HT-1080 human fibrosarcoma and on CD13− HT-29 human colon adenocarcinoma cells. Both cell types are integrin receptor positive. The effect of the new drug conjugates was compared with the toxicity of free Dau and our lead compound Dau=Aoa-GFLGK(c[KNGRE]-GG)-NH2 (K). The bioconjugates enter cancer cells most likely by receptor-mediated endocytosis (at least at lower micromolar concentration) followed by the release of the active metabolite Dau=Aoa-Gly-OH by lysosomal degradation. In contrast, free Dau enters the cells in an unspecific manner which might explain the lower antitumor effect of conjugates in comparison with the free drug. In this experiment we measured the cytostatic effect (6 h treatment and further 66 h incubation after washing out the compounds) and the cytotoxic effect (72 h treatment). The results are summarized in (Table 3). […] It seems that the replacement of Lys by the hydrophilic amino acid Ser is not favorite. However, the incorporation of hydrophobic amino acids was well accepted. The conjugate with bulky side chain in this position (Leu) had higher IC50 values that might be explained by sterical hindrance. […] The Nle containing conjugate presented similar activity on HT-1080 and higher activity on HT-29 cells compared to the control conjugate. It is worth mentioning that Nle has a linear hydrocarbon side chain with the same length as Lys, the amino functional group missing. To further characterize the biological activity of the conjugates, their lysosomal degradation and cellular uptake were studied.
(§2) HT-1080 was maintained in DMEM while HT-29 cells in RPMI (Sigma-Aldrich), respectively, supplemented with 10% FBS, 5 mmol/L glutamine, and 50 units/mL penicillin and streptomycin (Life Technologies). As described in [17] cells were seeded in 5000 cells/well density in 100 μL medium followed by an overnight incubation. The next day 100 μL of serially diluted drugs were added to the cells. For the measurements of cytostatic effect, drug containing medium was gently removed from the plates after 6 h incubation, fresh medium was added to each wells, and the plates were further incubated for additional 66 h (72 h in total). In the case of cytotoxicity measurements, the drug containing medium was on the cells for the full period of the 72 h assay. At 72 h, supernatant was removed from the cells, and viability was assessed by the PrestoBlue® reagent (Life Technologies), which was diluted in PBS to reach the concentration given in the manufacturer’s instruction.

[2] = system: CD13- HT-29 human colon adenocarcinoma cells; assay: as above; format: cell-based
Description: as §1, §2

HT-29 cells = assay: Cellular uptake by flow cytometry; format: cell-based, human; conditions: 10 μM, 6 h, 37 °C; for Cellular uptake in HT-29 compared with HT-1080 cells: flow cytometry, comparison of the two cell lines; for Cellular uptake by HT-29 cells: FBS containing medium, flow cytometry (Dau fluorescence)
Description: (§3) Daunomycin is fluorescent therefore the cellular uptake of Dau containing conjugates can be followed by flow cytometry (Figure 2). The new conjugates were taken up by HT-29 cells in a higher amount than by HT-1080 cells. […] The low cytostatic/cytotoxic effects of conjugate 5 can be explained by the results of cellular uptake study.
(§4) Figure 2 (A) HT1080 and (B) HT-29 cells. Uptake of conjugate 1 (light green); 2 (red); 3 (light blue); 4 (pink); 5 (green); K (yellow). Empty control with purple color.
(§5) Analogous to the description in [17], prior to the treatment, HT-1080 and HT-29 cells were incubated overnight in cell culture medium (see above) followed by seeding at a 250.000 cells/well density. Peptide–drug conjugates were dissolved in FBS containing cell culture medium and added to the cells at 10 μM final concentration. After 6 h incubation at 37 °C the supernatant was removed, cells were washed with PBS and trypsinised with 0.1% trypsin (Gibco® by Life Technologies) for 10 minutes. Trypsinization was terminated with FBS containing medium, then cells were washed and suspended in serum free medium. For live/dead detection we used Zombie Violet reagent (Biolegend, San Diego CA). Samples were detected and analyzed by using an Attitude® Acoustic Focusing Cytometer (ThermoFischer Scientific).

[3] = Chemostability (Asn deamidation) of cyclic NGR peptide-daunomycin conjugates in complete cell culture medium; format: physicochemical; conditions: DMEM CM (10% FBS complete medium), 2% DMSO, 1 mg/mL, 37 °C, HPLC-MS, area under the curve
Protocol: The chemostability of cyclic NGR peptide–drug conjugates was studied under the treatment conditions used for the in vitro cytotoxicity experiments. Samples were taken at 0 min, 6 h and 72 h. The deamidation rate was evaluated by HPLC–MS. […] After 6 h, moderate rearrangement was observed which increased in time. However, 54–58% of the parent cyclic NGR conjugates were still intact after 72 h. […] Except deamidation no other decomposition could be observed during this study.
As described in [17] to check the chemical stability each of the drug conjugates were dissolved in DMSO (2% of the final volume), following the addition of 10% FBS (fetal bovine serum) containing complete cell culture medium (DMEM CM) up to the 1 mg/mL final concentration. Each conjugate was allowed to incubate at 37 °C. Samples were analyzed at experiment time of 0 h, 6 h and 72 h, respectively, and components were purified with Amicon Ultra Centrifugal Filters (cut off 10K Millipore). The membranes were washed with eluent A (HPLC), followed by 3 × 15 min centrifugation at 13000 rpm. The last step is the washing with eluent B (HPLC) 1 × 15 min, followed by lyophilization and concentration of the samples.

HT-1080 cells = assay: Cellular uptake by flow cytometry; format: cell-based, human; conditions: 10 μM, 6 h, 37 °C, FBS containing medium; flow cytometry (Dau fluorescence)
Description: as §3, §4, §5

[4] = Rat liver lysosomal homogenate; conditions: 37 °C, up to 72 h
[5] = 10% FBS (fetal bovine serum) containing complete cell culture medium (DMEM CM); conditions: 37 °C, up to 72 h

With `COc1cccc2c1C(=O)c1c(O)c3c(c(O)c1C2=O)C[C@@](O)(C(C)=O)C[C@@H]3O[C@H]1C[C@H](N)[C@H](O)[C@H](C)O1` [Daunomycin] the IC50 ([1]; HT-1080, 72 h, read-out: HT-1080 (72 h) IC50) was 500 ± 200 nM, the IC50 ([1]; HT-1080, read-out: HT-1080 (6 h) IC50) was 1400 ± 600 nM and the IC50 ([2]; HT-29, 72 h, read-out: HT-29 (72 h) IC50) was 100 ± 100 nM. It also gave an IC50 ([2]; HT-29, read-out: HT-29 (6 h) IC50) of 300 ± 200 nM.

For `COc1cccc2c1C(=O)c1c(O)c3c(c(O)c1C2=O)C[C@@](O)(C(C)=NOCC(=O)NCC(=O)N[C@@H](Cc1ccccc1)C(=O)N[C@@H](CC(C)C)C(=O)NCC(=O)N[C@@H](CCCCNC(=O)CNC(=O)CNC(=O)[C@@H]1CCC(=O)N[C@@H](CC(C)C)C(=O)N[C@@H](CC(N)=O)C(=O)NCC(=O)N[C@@H](CCCNC(=N)N)C(=O)N1)C(N)=O)C[C@@H]3O[C@H]1C[C@H](N)[C@H](O)[C@H](C)O1` [compound 2, Dau=Aoa-GFLGK(c[CONH-LNGRE]-GG)-NH2], the “Cellular uptake in HT-29 compared with HT-1080 cells” value (HT-29 cells) was “significantly higher accumulation in HT-29 than in HT-1080 cells”.

For `COc1cccc2c1C(=O)c1c(O)c3c(c(O)c1C2=O)C[C@@](O)(C(C)=NOCC(=O)NCC(=O)N[C@@H](Cc1ccccc1)C(=O)N[C@@H](CC(C)C)C(=O)NCC(=O)N[C@@H](CCCCNC(=O)CNC(=O)CNC(=O)[C@@H]1CCC(=O)N2CCC[C@H]2C(=O)N[C@@H](CC(N)=O)C(=O)NCC(=O)N[C@@H](CCCNC(=N)N)C(=O)N1)C(N)=O)C[C@@H]3O[C@H]1C[C@H](N)[C@H](O)[C@H](C)O1` [compound 4, Dau=Aoa-GFLGK(c[CONH-PNGRE]-GG)-NH2] (I: PNGREGG / II: {Daunorubicin(13-NOCH2CO)}-GFLGK-NH2; amide I:C-II:5; lactam I:N-I:5), the “Ratio of Asn-/Asp-/isoAsp-derivatives: DGR” value ([3]; 6 h) was 14%, the “Ratio of Asn-/Asp-/isoAsp-derivatives: isoDGR” value ([3]; 6 h) was 13% and the “Ratio of Asn-/Asp-/isoAsp-derivatives: NGR” value ([3]; 6 h, % printed in b14 only) was 73%. For the same compound, the “Ratio of Asn-/Asp-/isoAsp-derivatives: DGR” value ([3]; 72 h) was 46%, the “Ratio of Asn-/Asp-/isoAsp-derivatives: NGR” value ([3]; 72 h) was 19% and the “Ratio of Asn-/Asp-/isoAsp-derivatives: isoDGR” value ([3]; 72 h) was 35%. The “Cellular uptake by HT-1080 cells” value (HT-1080 cells) was “highest uptake”, the “Cellular uptake by HT-29 cells” value (HT-29 cells) was “highest uptake” and the “Cellular uptake in HT-29 compared with HT-1080 cells” value (HT-29 cells) was “significantly higher accumulation in HT-29 than in HT-1080 cells”.

In the case of `COc1cccc2c1C(=O)c1c(O)c3c(c(O)c1C2=O)C[C@@](O)(C(C)=NOCC(=O)NCC(=O)N[C@@H](Cc1ccccc1)C(=O)N[C@@H](CC(C)C)C(=O)NCC(=O)N[C@@H](CCCCNC(=O)CNC(=O)CNC(=O)[C@@H]1CCC(=O)N[C@@H](CO)C(=O)N[C@@H](CC(N)=O)C(=O)NCC(=O)N[C@@H](CCCNC(=N)N)C(=O)N1)C(N)=O)C[C@@H]3O[C@H]1C[C@H](N)[C@H](O)[C@H](C)O1` [compound 5, Dau=Aoa-GFLGK(c[CONH-SNGRE]-GG)-NH2], the “Cellular uptake by HT-1080 cells” value (HT-1080 cells) is reported as “did not enter” and the “Cellular uptake by HT-29 cells” value (HT-29 cells) is reported as “slightly higher cellular uptake”.

With Dau=Aoa-GFLGK(c[CONH-ANGRE]-GG)-NH2 the cleaved bond [4] was “Gly-Phe, major, 6 h” and the fragment found [5] was “isoDGR, 6 h; also recorded: DGR, 72 h”.

With Dau=Aoa-GFLGK(c[CONH-KNGRE]-GG)-NH2 the not cleaved [5] was 100% NGR form at 72 h.

With Dau=Aoa-GFLGK(c[CONH-LNGRE]-GG)-NH2 the cleaved bond [4] was “Gly-Phe, major, 6 h” and the fragment found [5] was “isoDGR, 6 h; also recorded: DGR, 72 h”.

For Dau=Aoa-GFLGK(c[CONH-NleNGRE]-GG)-NH2, the cleaved bond [4] was “Gly-Phe, major, 6 h” and the fragment found [5] was “isoDGR, 6 h; also recorded: DGR, 6 h”.

For Dau=Aoa-GFLGK(c[CONH-PNGRE]-GG)-NH2, the cleaved bond [4] was “Gly-Phe, major, 6 h” and the fragment found [5] was “isoDGR, 6 h; also recorded: DGR, 6 h”.

For Dau=Aoa-GFLGK(c[CONH-SNGRE]-GG)-NH2, the cleaved bond [4] was “Gly-Phe, major, 6 h” and the fragment found [5] was “DGR, 72 h; also recorded: isoDGR, 6 h”.
